Experimental data reported in patent US20230079687A1, “ALKYLRESORCINOL HOMOLOGUES AS ANTIOXIDANTS” (The Penn State Research Foundation, priority 2021, published 2023).
“Also recorded” adds a separate entry of the source.

Legend:
[1] = Formation of lipid hydroperoxides in antioxidant-treated crackers during storage; details: for storage day at which lipid hydroperoxide concentration began to increase (end of lag phase): autoxidized at 55° C. in the absence of light; for storage day at which lipid hydroperoxide concentration began to increase (end of lag phase) / course of lipid hydroperoxide formation after the lag phase (in words): FIG. 1; for order of induction periods for lipid hydroperoxides: time to reach threshold [Hydroperoxides]=0.1 mM/g cracker, FIG. 3A
Method: (§1) Based on the concentrations of the individual AR stock solutions previously determined, an appropriate volume, containing 153 μmol of the respective individual AR homologue, was measured into plastic centrifuge tubes to prepare individual AR homologue treatments. A treatment containing a mixture of the individual AR homologues, at their natural abundance in rye bran, was prepared by combining 25.3% of C17:0, 32.0% of C19:0, 22.6% of C21:0, 12.5% of C23:0, and 7.6% of C25:0. The same procedure was carried out with 10 mM stock solutions of orcinol, α-tocopherol, and butylated hydroxytoluene (BHT) and all treatments were dried under a stream of nitrogen. Ethanol (1.0 mL) was added to the dried treatments (and a control treatment containing no antioxidant) and mixed with 10 g of melted ISO. The antioxidant activity of each treatment was tested at 153 μmol because this corresponds to 500 ppm of C21:0 in the final cracker which is a typical antioxidant concentration used in bakery applications.
(§2) Antioxidant-treated ISO was melted at 90° C. for 10 minutes and mixed in a stand mixer (KSM95, KitchenAid, Benton Harbor, Mich., U.S.) using a beater blade for 1 minute (speed 2). Sifted flour, salt, and baking soda were added and mixed using a beater blade for 1 minute (speed 2). Water was added and mixed using a dough hook for 1 minute (speed 2). The additional flour was sprinkled onto the surface of a baking mat and incorporated into the dough by kneading by hand (30 folds). The dough was flattened by passing it through a pasta roller (KPSA, KitchenAid, Benton Harbor, Mich., U.S.) twice (thickness setting 2). The sheeted dough was cut into 2.5 cm×2.5 cm crackers and baked on an ungreased baking sheet for 9 minutes at 163° C. (FD 53-UL, Binder, Tuttlingen, Germany). After cooling to room temperature, crackers were coarsely crumbled using a mortar and pestle and weighed (0.5 g) into 10 mL amber glass headspace vials (Supelco Analytical, Bellefonte, Pa., U.S.), sealed with stainless steel screw caps with PTFE/silicone septa (Supelco Analytical, Bellefonte, Pa., U.S.), and allowed to autoxidize at 55° C. in the absence of light for up to 160 days. Crackers were analyzed for lipid hydroperoxides, headspace hexanal, and AR loss every 5 days for day 0-50, every 10 days for day 51-100, and every 20 days for the remainder of the storage time.
Lipid hydroperoxides were determined according to the method described by Shantha & Decker (1994) with slight modifications. Cracker samples (0.1 g) were finely ground using a mortar and pestle and mixed with 5.0 mL chloroform/methanol (2:1 (v/v)) by vortexing (10 seconds, 3 times). The hydroperoxide-containing lipid fraction was extracted and isolated by centrifugation at 2500×g for 10 minutes (Centrifuge 5702, A-4-38 Rotor, Eppendorf, Hamburg, Germany). To this extract (1.0 mL), 16.7 μL of an iron chloride solution (prepared by mixing 50 mL 66 mM FeSO4 in water with 50 mL 38 mM BaCl2 in 0.4 N HCl) was added followed by 16.7 μL of ammonium thiocyanate (3.9 M in water), and allowed to react at room temperature for 20 minutes. The absorbance of the samples was measured at 500 nm (GENESYS 180 UV-Vis Spectrophotometer, Thermo Fisher Scientific, Waltham, Mass., U.S.) and lipid hydroperoxides were quantified based on a standard curve prepared using cumene hydroperoxide.
Individual AR homologues (C17:0, C19:0, C21:0, C23:0, C25:0) were added separately and as a mixture (AR Mix) to ISO and subsequently incorporated into the cracker samples. The antioxidant activities of the AR homologues in crackers were compared to orcinol (a water-soluble AR), conventional antioxidants (i.e., α-tocopherol, BHT), and a control treatment (i.e., no added antioxidant). The crackers were allowed to autoxidize in the absence of light and primary (i.e., lipid hydroperoxides) and secondary products (i.e., headspace hexanal) of lipid oxidation were measured as a function of time.

[2] = Formation of headspace hexanal in antioxidant-treated crackers during storage; details: for activity concluded from headspace hexanal formation / storage day at which headspace hexanal began to increase (end of lag phase): 153 μmol antioxidant in crackers; for activity concluded from headspace hexanal formation: 55° C., compared to control crackers; for storage day at which headspace hexanal began to increase (end of lag phase): autoxidized at 55° C. in the absence of light, FIG. 2; for order of induction periods for headspace hexanal: time to reach threshold [Hexanal]=1.0 mM/g cracker, FIG. 3B
Method: as §1, §2
Cracker samples were prepared for GC-MS analysis by adding 10 μL of 100 mg/L 2-methypentanal (internal standard) in methanol directly through the capped headspace vial's septum. The GC system consisted of a 7890B gas chromatograph (Agilent, Santa Clara, Calif., U.S.) with sample introduction by means of an autosampler (Robotic MultiPurpose Sampler, Gerstel, Mülheim, Germany). Samples were equilibrated for 10 minutes at 55° C. with continuous shaking. A 50/30 μm divinylbenzene/carboxen/polydimethylsiloxane (DVB/CAR/PDMS) (1 cm) (Supelco Analytical, Bellefonte, Pa., U.S.) solid phase microextraction (SPME) fiber was exposed to the sample headspace for 2 minutes at 55° C. The SPME fiber was desorbed for 6 minutes at 250° C. in the injection port equipped with a SPME inlet liner at a split ratio of 10:1. Volatile aldehydes were separated on a Rtx-WAX capillary column (30 m, 0.25 mm i.d., 0.25 μm film thickness) (Restek, Bellefonte, Pa., U.S.). An oven program was followed to separate the different volatile aldehydes at a constant helium carrier gas flow rate of 1.22 mL/min. The oven program was as follows: hold at 40° C. for 1 minute; ramp at 10° C./min to 75° C.; ramp at 100° C./min to 250° C.; hold at 250° C. for 1.75 minutes. Detection and quantification of hexanal and 2-methylpentanal was achieved using a single quadrupole mass spectrometer (5977B, Agilent, Santa Clara, Calif., U.S.) coupled to the GC. The MS transfer line, quadrupole, and detector temperatures were set to 250° C., 230° C., 150° C., respectively. Mass spectra were collected in electron impact mode.

[3] = Antioxidant activity in the low-moisture model cracker system (overall lipid oxidation study); details: 153 μmol antioxidant
Method: Based on the concentrations of the individual AR stock solutions previously determined, an appropriate volume, containing 153 μmol of the respective individual AR homologue, was measured into plastic centrifuge tubes to prepare individual AR homologue treatments. […] The same procedure was carried out with 10 mM stock solutions of orcinol, α-tocopherol, and butylated hydroxytoluene (BHT) and all treatments were dried under a stream of nitrogen. Ethanol (1.0 mL) was added to the dried treatments (and a control treatment containing no antioxidant) and mixed with 10 g of melted ISO. […] Antioxidant-treated ISO was melted at 90° C. for 10 minutes and mixed in a stand mixer (KSM95, KitchenAid, Benton Harbor, Mich., U.S.) using a beater blade for 1 minute (speed 2). […] flour, salt, and baking soda were added and mixed using a beater blade for 1 minute (speed 2). Water was added and mixed using a dough hook for 1 minute (speed 2). The additional flour was sprinkled onto the surface of a baking mat and incorporated into the dough by kneading by hand (30 folds). The dough was flattened by passing it through a pasta roller (KPSA, KitchenAid, Benton Harbor, Mich., U.S.) twice (thickness setting 2). The sheeted dough was cut into 2.5 cm×2.5 cm crackers and baked on an ungreased baking sheet for 9 minutes at 163° C. (FD 53-UL, Binder, Tuttlingen, Germany). […] Individual AR homologues (C17:0, C19:0, C21:0, C23:0, C25:0) were added separately and as a mixture (AR Mix) to ISO and subsequently incorporated into the cracker samples. The antioxidant activities of the AR homologues in crackers were compared to orcinol (a water-soluble AR), conventional antioxidants (i.e., α-tocopherol, BHT), and a control treatment (i.e., no added antioxidant). The crackers were allowed to autoxidize in the absence of light and primary (i.e., lipid hydroperoxides) and secondary products (i.e., headspace hexanal) of lipid oxidation were measured as a function of time.

[4] = oxygen radical absorbance capacity assay, earlier work of the Inventors; cited from earlier work
[5] = literature, same low-moisture model cracker system; cited from earlier work
[6] = 153 μmol antioxidant in crackers
[7] = 153 μmol antioxidant in crackers, 55° C.

SMILES	activity concluded from lipid hydroperoxide formation ([1]; 153 μmol antioxidant in crackers, 55° C., compared to control crackers)	storage day at which lipid hydroperoxide concentration began to increase (end of lag phase) [1, 6]	order of induction periods for lipid hydroperoxides [1]	activity concluded from headspace hexanal formation [2]	storage day at which headspace hexanal began to increase (end of lag phase) [2]	order of induction periods for headspace hexanal [2]	antioxidant activity in the low-moisture model cracker system (in words) [3]	course of lipid hydroperoxide formation after the lag phase (in words) [1, 7]	radical scavenging capacity [4]	antioxidant activity against formation of lipid hydroperoxides and hexanal [5]
Cc1c(C)c2c(c(C)c1O)CC[C@@](C)(CCC[C@H](C)CCC[C@H](C)CCCC(C)C)O2 [α-tocopherol]	prooxidant activity	immediately upon storage	AR Mix≈C23:0>C25:0>(C21:0≈C19:0)>(C19:0≈BHT)>(BHT≈orcinol)>(orcinol≈C17:0)>control>>α-tocopherol	prooxidant behavior	5 days	C23:0>BHT>C25:0 AR Mix>C21:0>C19:0≈C17:0>control≈orcinol>>α-tocopherol	strong prooxidant activity	–	–	–
CCCCCCCCCCCCCCCCCCCc1cc(O)cc(O)c1 [C19:0]	–	25 days	AR Mix≈C23:0>C25:0>(C21:0≈C19:0)>(C19:0≈BHT)>(BHT≈orcinol)>(orcinol≈C17:0)>control>>α-tocopherol	–	50 days	C23:0>BHT>C25:0 AR Mix>C21:0>C19:0≈C17:0>control≈orcinol>>α-tocopherol	–	–	–	–
Cc1cc(C(C)(C)C)c(O)c(C(C)(C)C)c1 [BHT, butylated hydroxytoluene]	–	25 days	AR Mix≈C23:0>C25:0>(C21:0≈C19:0)>(C19:0≈BHT)>(BHT≈orcinol)>(orcinol≈C17:0)>control>>α-tocopherol	–	–	C23:0>BHT>C25:0 AR Mix>C21:0>C19:0≈C17:0>control≈orcinol>>α-tocopherol	strong antioxidant activity	slow, steady increase	–	–
CCCCCCCCCCCCCCCCCCCCCCCCCc1cc(O)cc(O)c1 [C25:0]	–	–	AR Mix≈C23:0>C25:0>(C21:0≈C19:0)>(C19:0≈BHT)>(BHT≈orcinol)>(orcinol≈C17:0)>control>>α-tocopherol	–	–	C23:0>BHT>C25:0 AR Mix>C21:0>C19:0≈C17:0>control≈orcinol>>α-tocopherol	more effective than BHT	slow, steady increase	–	–
Cc1cc(O)cc(O)c1 [orcinol]	–	25 days	AR Mix≈C23:0>C25:0>(C21:0≈C19:0)>(C19:0≈BHT)>(BHT≈orcinol)>(orcinol≈C17:0)>control>>α-tocopherol	neither prooxidant or antioxidant activity	> 35 days	C23:0>BHT>C25:0 AR Mix>C21:0>C19:0≈C17:0>control≈orcinol>>α-tocopherol	weak to no antioxidant activity	oxidizing most rapidly	strongest antiradical activity	–
O=C(/C=C/c1ccc(O)c(O)c1)O[C@H](Cc1ccc(O)c(O)c1)C(=O)O [rosmarinic acid]	–	–	–	–	–	–	–	–	–	weak antioxidant and prooxidant activity
CCCCCCCCCCCCCCCCCCCCCc1cc(O)cc(O)c1 [C21:0]	–	25 days	AR Mix≈C23:0>C25:0>(C21:0≈C19:0)>(C19:0≈BHT)>(BHT≈orcinol)>(orcinol≈C17:0)>control>>α-tocopherol	–	70 days	C23:0>BHT>C25:0 AR Mix>C21:0>C19:0≈C17:0>control≈orcinol>>α-tocopherol	–	–	–	–
CCCCCCCCCCCCCCCCCc1cc(O)cc(O)c1 [C17:0]	–	25 days	AR Mix≈C23:0>C25:0>(C21:0≈C19:0)>(C19:0≈BHT)>(BHT≈orcinol)>(orcinol≈C17:0)>control>>α-tocopherol	–	45 days	C23:0>BHT>C25:0 AR Mix>C21:0>C19:0≈C17:0>control≈orcinol>>α-tocopherol	–	–	–	–
CCCCCCCCCCCCCCCCCCCCCCCc1cc(O)cc(O)c1 [C23:0]	–	–	AR Mix≈C23:0>C25:0>(C21:0≈C19:0)>(C19:0≈BHT)>(BHT≈orcinol)>(orcinol≈C17:0)>control>>α-tocopherol	–	still in the lag phase of lipid oxidation at the conclusion of the study	C23:0>BHT>C25:0 AR Mix>C21:0>C19:0≈C17:0>control≈orcinol>>α-tocopherol	optimum activity; also recorded: more effective than BHT	slow, steady increase	–	–
CCCCCCCCCCCCCCCCCCCCOC(=O)C(Cc1ccc(O)c(O)c1)OC(=O)C=Cc1ccc(O)c(O)c1 (stereo not shown) [eicosyl ester]	–	–	–	–	–	–	–	–	–	stronger antioxidant activity than rosmarinic acid and the dodecyl ester
